Laboratory results as given in patent US12606533B2, “3-phenylpropylamine derivative” (DAIICHI SANKYO COMPANY, LIMITED, priority 2023, dated 2026).

What was measured:
[1] = system: NCI-H295R cells; assay: Proliferation inhibitory action on NCI-H295R (CellTiter-Glo, 7 days); assay type: cell-based, human; conditions: Homo sapiens, NCI-H295R, 168 h
How it was run: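 Compounds serially diluted in DMSO; cells seeded at 2×10^3 cells/well and cultured 7 days at 37° C, 5% CO2. CellTiter-Glo 2.0 luminescence read at day 0 and day 7; proliferation rate derived from compound-addition-day signal, untreated day-7 signal and treated day-7 signal.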

[2] = target: T1, SF-1 (Homo sapiens, UniProt Q13285); assay: SF1 degradation induction in NCI-H295R SF-1-HiBiT cells (HiBiT DC50); assay type: cell-based; conditions: 24 hr, concentration that induces 50% degradation of SF-1
T1 construct: NCI-H295R SF-1-HiBiT cells with HiBiT tag knocked in at the endogenous SF1 locus; host or cells: NCI-H295R SF-1-HiBiT (knock-in at endogenous locus)
How it was run: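 NCI-H295R cells carrying HiBiT-tagged SF-1, plated and grown 24 hr, then exposed to serially diluted compounds for 24 hr at 37° C. Remaining SF-1 read by lytic HiBiT luminescence; degradation rate from treated vs compound-free signal, DC50 as concentration giving 50% degradation.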

Row | SMILES | GI50 [1] [µM] | DC50 [2] [µM]
1 | COc1ccc([C@]2(CCN(Cc3ccc(C4=CC[C@H](C(=O)N5CC(Nc6ccc7c8c6CCCn8c(=O)n7C6CCC(=O)NC6=O)C5)CC4)c(F)c3)CC(C)(C)C(F)(F)F)CCOC(C)(C)C2)cc1 (stereo partly drawn) [BW3, 3-{7-[(1-{[(4R)-2′-Fluoro-4′-{[{2-[(4R)-4-(4-methoxyphenyl)-2,2-dimethyltetrahydro-2H-pyran-4-yl]ethyl}(3,3,3-trifluoro-2,2-dimethylpropyl)amino]methyl}-2,3,4,5-tetrahydro[biphenyl]-4-yl]carbonyl}azetidin-3-yl)amino]-2-oxo-5,6-dihydro-4H-imidazo[4,5,1-ij]quinolin-1(2H)-yl}piperidine-2,6-dione] | 0.086 | 0.0091
2 | COc1ccc([C@]2(CCN(Cc3ccc(C4=CC[C@H](C(=O)N5CCC(Nc6ccc7c(c6F)n(C)c(=O)n7C6CCC(=O)NC6=O)CC5)CC4)c(F)c3)CC(C)(C)C(F)(F)F)CCOC(C)(C)C2)cc1 (stereo partly drawn) [BX6, 3-{4-Fluoro-5-[(1-{[(4R)-2′-fluoro-4′-{[{2-[(4R)-4-(4-methoxyphenyl)-2,2-dimethyltetrahydro-2H-pyran-4-yl]ethyl}(3,3,3-trifluoro-2,2-dimethylpropyl)amino]methyl}-2,3,4,5-tetrahydro[biphenyl]-4-yl]carbonyl}piperidin-4-yl)amino]-3-methyl-2-oxo-2,3-dihydro-1H-benzimidazol-1-yl}piperidine-2,6-dione] | 0.052 | 0.0071
3 | COc1ccc([C@]2(CCN(Cc3ccc(C4=CC[C@@H](CN5CCN(C(=O)c6ccc7c8c6NCCn8c(=O)n7C6CCC(=O)NC6=O)CC5)CC4)cc3)CC(C)(C)C(F)(F)F)CCOC(C)(C)C2)cc1 (stereo partly drawn) [BZ7, 3-{7-[(4-{[(4S)-4′-{[{2-[(4R)-4-(4-Methoxyphenyl)-2,2-dimethyltetrahydro-2H-pyran-4-yl]ethyl}(3,3,3-trifluoro-2,2-dimethylpropyl)amino]methyl)-2,3,4,5-tetrahydro[biphenyl]-4-yl]methyl}piperazin-1-yl)carbonyl]-2-oxo-5,6-dihydro-4H-imidazo[1,5,4-de]quinoxalin-1(2H)-yl}piperidine-2,6-dione] | 0.027 | 0.004
4 | COc1ccc([C@]2(CCN(CC(C)(C)C(F)(F)F)C[C@H]3CC[C@H](c4ccc(NC(=O)N5CCC(Nc6ccc7c(c6)n(C)c(=O)n7C6CCC(=O)NC6=O)CC5)cc4)CC3)CCOC(C)(C)C2)cc1 (stereo partly drawn) [CA1, 4-{[1-(2,6-Dioxopiperidin-3-yl)-3-methyl-2-oxo-2,3-dihydro-1H-benzimidazol-5-yl]amino}-N-[4-(trans-4-{[{2-[(4R)-4-(4-methoxyphenyl)-2,2-dimethyltetrahydro-2H-pyran-4-yl]ethyl) (3,3,3-trifluoro-2,2-dimethylpropyl)amino]methyl}cyclohexyl)phenyl]piperidine-1-carboxamide] | 0.048 | 0.0055
5 | COc1ccc([C@]2(CCN(Cc3ccc(C4=CC[C@H](C(=O)N5CCN(Cc6ccc7c8c6CN(C)CCn8c(=O)n7C6CCC(=O)NC6=O)CC5)CC4)c(F)c3)CC(C)(C)C(F)(F)F)CCOC(C)(C)C2)cc1 (stereo partly drawn) [CB10, 3-{8-[(4-{[(4R)-2′-Fluoro-4′-{[{2-[(4R)-4-(4-methoxyphenyl)-2,2-dimethyltetrahydro-2H-pyran-4-yl]ethyl}(3,3,3-trifluoro-2,2-dimethylpropyl)amino]methyl}-2,3,4,5-tetrahydro[biphenyl]-4-yl]carbonyl}piperazin-1-yl)methyl]-6-methyl-2-oxo-4,5,6,7-tetrahydroimidazo[4,5,1-jk][1,4]benzodiazepin-1(2H)-yl}piperidine-2,6-dione] | 0.085 | 0.013
6 | COc1ccc([C@]2(CCN(Cc3ccc(C4=CC[C@H](C(=O)N5C6COCC5CC(Nc5ccc7c8c5CCCn8c(=O)n7C5CCC(=O)NC5=O)C6)CC4)c(F)c3)CC(C)(C)C(F)(F)F)CCOC(C)(C)C2)cc1 (stereo partly drawn) [CC3, 3-[7-{[(7-Exo)-9-{[(4R)-2′-fluoro-4′-{[{2-[(4R)-4-(4-methoxyphenyl)-2,2-dimethyltetrahydro-2H-pyran-4-yl]ethyl)(3,3,3-trifluoro-2,2-dimethylpropyl)amino]methyl}-2,3,4,5-tetrahydro[biphenyl]-4-yl]carbonyl}-3-oxa-9-azabicyclo[3.3.1]nonan-7-yl]amino}-2-oxo-5,6-dihydro-4H-imidazo[4,5,1-ij]quinolin-1(2H)-yl]piperidine-2,6-dione] | 0.036 | 0.0049
7 | COc1ccc([C@]2(CCN(Cc3ccc(C4=CC[C@H](C(=O)N5CCC(Nc6cccc7c6n(C)c(=O)n7C6CCC(=O)NC6=O)CC5)CC4)c(F)c3)CC(C)(C)C(F)(F)F)CCOC(C)(C)C2)cc1 (stereo partly drawn) [CD2, 3-{4-[(1-{[(4R)-2′-Fluoro-4′-{[{2-[(4R)-4-(4-methoxyphenyl)-2,2-dimethyltetrahydro-2H-pyran-4-yl]ethyl}(3,3,3-trifluoro-2,2-dimethylpropyl)amino]methyl}-2,3,4,5-tetrahydro[biphenyl]-4-yl]carbonyl}piperidin-4-yl)amino]-3-methyl-2-oxo-2,3-dihydro-1H-benzimidazol-1-yl}piperidine-2,6-dione] | 0.033 | 0.007
8 | COc1ccc([C@]2(CCN(Cc3ccc(C4=CC[C@H](CN5CCN(C(=O)c6ccc7c8c6NCCn8c(=O)n7[C@H]6CCC(=O)NC6=O)CC5)CC4)cc3)CC(C)(C)C(F)(F)F)CCOC(C)(C)C2)cc1 [CE1, (3S)-3-{7-[(4-{[(4R)-4′-{[{2-[(4R)-4-(4-Methoxyphenyl)-2,2-dimethyltetrahydro-2H-pyran-4-yl]ethyl)(3,3,3-trifluoro-2,2-dimethylpropyl)amino]methyl}-2,3,4,5-tetrahydro[biphenyl]-4-yl]methyl}piperazin-1-yl)carbonyl]-2-oxo-5,6-dihydro-4H-imidazo[1,5,4-de]quinoxalin-1(2H)-yl}piperidine-2,6-dione] | 0.07 | 0.0043
9 | COc1ccc([C@]2(CCN(Cc3ccc(C4=CC[C@H](CN5CCN(C(=O)c6ccc7c8c6NCCn8c(=O)n7[C@@H]6CCC(=O)NC6=O)CC5)CC4)cc3)CC(C)(C)C(F)(F)F)CCOC(C)(C)C2)cc1 [CF1, (3R)-3-{7-[(4-{[(4R)-4′-{[{2-[(4R)-4-(4-Methoxyphenyl)-2,2-dimethyltetrahydro-2H-pyran-4-yl]ethyl)(3,3,3-trifluoro-2,2-dimethylpropyl)amino]methyl}-2,3,4,5-tetrahydro[biphenyl]-4-yl]methyl}piperazin-1-yl)carbonyl]-2-oxo-5,6-dihydro-4H-imidazo[1,5,4-de]quinoxalin-1(2H)-yl}piperidine-2,6-dione] | 0.084 | 0.0051
10 | COc1ccc([C@]2(CCN(Cc3ccc(-c4cccc(CC(=O)NCCNc5ccc6c(c5)n(C)c(=O)n6C5CCC(=O)NC5=O)c4)cc3)CC(C)(C)C(F)(F)F)CCOC(C)(C)C2)cc1 (stereo partly drawn) [Example AA4, N-(2-{[1-(2,6-Dioxopiperidin-3-yl)-3-methyl-2-oxo-2,3-dihydro-1H-benzimidazol-5-yl]amino}ethyl)-2-(4′-{[{2-[(4R)-4-(4-methoxyphenyl)-2,2-dimethyltetrahydro-2H-pyran-4-yl]ethyl)(3,3,3-trifluoro-2,2-dimethylpropyl)amino]methyl}[biphenyl]-3-yl)acetamide] | 0.488 | 0.012
